Experiments:
Format in all cases: in vivo
[1] = system: Echinochloa oryzacola Vasing.; assay: Test Example 2: herbicidal activity, application during weed generation in submerged conditions (symbol A); settings: Table 23; application herbicide amount 320 g/ha; grade 0-5 by criteria of Test Example 1
Outline: (§1)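 Paddy pot test, submerged (4 cm water), alluvial soil, mixed sowing; greenhouse 25–30° C. Emulsion formulation diluted to predetermined rate, applied onto floodwater at 1–2 leaf stage. Visual herbicidal rating at 3 wk post-treatment.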

Monochoria vaginalis = assay: Test Example 2: herbicidal activity, application during weed generation in submerged conditions (symbol C); settings: Table 23; application herbicide amount 320 g/ha; grade 0-5 by criteria of Test Example 1
Outline: as §1

[2] = system: Echinochloa crus-galli var. crus-galli; assay: Test Example 3: herbicidal effect by foliage application, Wagner pot (symbol H); settings: application herbicide amount 320 g/ha, Table 24
Outline: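 Foliar spray of water-diluted emulsion formulation at a predetermined herbicide amount onto 14-day-old plants in flooded alluvial soil (water depth 0.1–0.5 cm), greenhouse 25–30 °C; rice sown alongside. Scored 3 wk post-application on set criteria.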

Digitaria ciliaris = assay: Test Example 4: herbicidal effect by soil treatment (symbol F); settings: application herbicide amount 320 g/ha
Outline: (§2)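 Seeds were sown in sterilized diluvial soil, covered with about 1.5 cm of soil, and the soil surface was sprayed with a water-diluted emulsion of the compound at a predetermined rate. Plants grew in a greenhouse at 25° C. to 30° C.; effects were scored visually 3 weeks after application.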

Setaria viridis = assay: Test Example 4: herbicidal effect by soil treatment (symbol G); settings: application herbicide amount 320 g/ha
Outline: as §2

Lolium multiflorum Lam. = assay: Test Example 4: herbicidal effect by soil treatment (symbol K); settings: application herbicide amount 320 g/ha
Outline: as §2

Abutilon theophrasti [3] = assay: Test Example 4: herbicidal effect by soil treatment (symbol M); settings: application herbicide amount 320 g/ha
Outline: as §2

Galium spurium = assay: Test Example 4: herbicidal effect by soil treatment (symbol Q); settings: application herbicide amount 320 g/ha
Source text: Herbicidal Effect Test by Soil Treatment
Sterilized diluvial soil was placed in a plastic box having a length of 21 cm, a width of 13 cm, and a depth of 7 cm. Each of the seeds of Digitaria ciliaris, Setaria viridis, Echinochloa crus-galli var. crus-galli, Avena fatua, Alopecurus myosuroides, Lolium multiflorum Lam., Apera spica-venti, Abutilon theophrasti, Amaranthus retroflexus, Chenopodium album, Stellaria media, Galium spurium, Veronica persica, corn, soybean, rice, wheat, beet, and rapeseed was sowed in a spot-like manner and was covered with the soil of a thickness of about 1.5 cm. Subsequently, the emulsion agent of the compound present invention prepared in accordance with Formulation Example 2 was diluted with water so as to be a predetermined herbicide amount and the diluted emulsion agent was uniformly applied to the surface of the soil with a small-size spray. The plastic box was placed in a greenhouse of 25° C. to 30° C. to grow plant. 3 weeks later from the herbicide application, the effect to each plant was investigated in accordance with the criteria of Test Example 1.

soybean = assay: Test Example 4: effect on crop by soil treatment (symbol d); settings: application herbicide amount 320 g/ha
Outline: (§3)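 Crop seed is sown in spots together with several weed species in a box of sterilized diluvial soil. It is covered by about 1.5 cm of soil and kept in a greenhouse held between 25° C. and 30° C.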

beet = assay: Test Example 4: effect on crop by soil treatment (symbol f); settings: application herbicide amount 320 g/ha
Outline: as §3

Avena fatua = assay: Test Example 5: herbicidal effect by foliage application, plastic box (symbol I); settings: 320 g/ha, 3 weeks after application
Outline: (§4)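 Greenhouse foliar test: seedlings at 14 days, grown 25° C. to 30° C. in sterilized diluvial soil; compound applied as an aqueous dilution of an emulsion; response read 3 weeks after spraying.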

Apera spica-venti [4] = assay: Test Example 5: herbicidal effect by foliage application, plastic box (symbol L); settings: 320 g/ha, 3 weeks after application
Outline: as §4

Abutilon theophrasti [5] = assay: Test Example 5: herbicidal effect by foliage application, plastic box (symbol M); settings: 320 g/ha, 3 weeks after application
Outline: as §4

Chenopodium album [6] = assay: Test Example 5: herbicidal effect by foliage application, plastic box (symbol O); settings: 320 g/ha, 3 weeks after application
Outline: as §4

Stellaria media = assay: Test Example 5: herbicidal effect by foliage application, plastic box (symbol P); settings: 320 g/ha, 3 weeks after application
Outline: as §4

Veronica persica = assay: Test Example 5: herbicidal effect by foliage application, plastic box (symbol R); settings: 320 g/ha, 3 weeks after application
Outline: as §4

rice plant = assay: Test Example 5: effect on crop by foliage application, plastic box (symbol b); settings: 320 g/ha, 3 weeks after application
Outline: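 Sterilized diluvial soil, plastic box (21 × 13 × 7 cm); spot sowing, ~1.5 cm soil cover; greenhouse 25–30° C.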

Apera spica-venti [7] = assay: Test Example 4: herbicidal effect by soil treatment (symbol L); settings: application herbicide amount 320 g/ha
Outline: as §2

Chenopodium album [8] = assay: Test Example 4: herbicidal effect by soil treatment (symbol O); settings: application herbicide amount 320 g/ha
Outline: as §2

Row | SMILES | Herbicidal effect grade, A: Echinochloa oryzacola Vasing. [1] | Herbicidal effect grade, C: Monochoria vaginalis (Monochoria vaginalis) | H (Echinochloa crus-galli var. crus-galli) herbicidal effect grade [2] | F: Digitaria ciliaris, herbicidal effect grade (Digitaria ciliaris) | G: Setaria viridis, herbicidal effect grade (Setaria viridis) | K: Lolium multiflorum Lam., herbicidal effect grade (Lolium multiflorum Lam.) | M: Abutilon theophrasti, herbicidal effect grade (Abutilon theophrasti [3]) | Q: Galium spurium, herbicidal effect grade (Galium spurium) | d: soybean, effect on crop grade (soybean) | f: beet, effect on crop grade (beet) | I: Avena fatua, herbicidal effect grade (Avena fatua) | L: Apera spica-venti, herbicidal effect grade (Apera spica-venti [4]) | M: Abutilon theophrasti, herbicidal effect grade (Abutilon theophrasti [5]) | O: Chenopodium album, herbicidal effect grade (Chenopodium album [6]) | P: Stellaria media, herbicidal effect grade (Stellaria media) | R: Veronica persica, herbicidal effect grade (Veronica persica) | b: directly sowed rice plant, effect on crop grade (rice plant) | Herbicidal effect grade, F: Digitaria ciliaris (Digitaria ciliaris) | Herbicidal effect grade, G: Setaria viridis (Setaria viridis) | Herbicidal effect grade, K: Lolium multiflorum Lam. (Lolium multiflorum Lam.) | further results
1 | CON=C(CC1CC(O)=C(c2c(C)cc(C)cc2OC)C1=O)C1CC1 (mixture of isomers) [13-002] | 5 (Herbicidal ratio of 90% or more (almost completely withered)) | 2 (Herbicidal ratio of 20% or higher and lower than 40%) | 5 (Herbicidal ratio of 90% or more (almost completely withered)) | 5 (Herbicidal ratio of 90% or more (almost completely withered)) | 5 (Herbicidal ratio of 90% or more (almost completely withered)) | 5 (Herbicidal ratio of 90% or more (almost completely withered)) | 0 (Herbicidal ratio of 5% or lower (almost no effect)) | 0 (Herbicidal ratio of 5% or lower (almost no effect)) | 1 (Herbicidal ratio of 5% or higher and lower than 20%) | 0 (Herbicidal ratio of 5% or lower (almost no effect)) | 5 (Herbicidal ratio of 90% or more (almost completely withered)) | 5 (Herbicidal ratio of 90% or more (almost completely withered)) | 2 (Herbicidal ratio of 20% or higher and lower than 40%) | 5 (Herbicidal ratio of 90% or more (almost completely withered)) | 3 (Herbicidal ratio of 40% or higher and lower than 70%) | 4 (Herbicidal ratio of 70% or higher and lower than 90%) | 5 (Herbicidal ratio of 90% or more (almost completely withered)) |  |  |  | 
2 | CON=C(CC1CC(OC(=O)C(C)(C)C)=C(c2c(C)cc(C)cc2OC)C1=O)C1CC1 (mixture of isomers) [13-006] | 5 (Herbicidal ratio of 90% or more (almost completely withered)) | 4 (Herbicidal ratio of 70% or higher and lower than 90%) | 5 (Herbicidal ratio of 90% or more (almost completely withered)) | 5 (Herbicidal ratio of 90% or more (almost completely withered)) | 5 (Herbicidal ratio of 90% or more (almost completely withered)) | 5 (Herbicidal ratio of 90% or more (almost completely withered)) | 5 (Herbicidal ratio of 90% or more (almost completely withered)) | 0 (Herbicidal ratio of 5% or lower (almost no effect)) | 0 (Herbicidal ratio of 5% or lower (almost no effect)) | 0 (Herbicidal ratio of 5% or lower (almost no effect)) | 5 (Herbicidal ratio of 90% or more (almost completely withered)) | 5 (Herbicidal ratio of 90% or more (almost completely withered)) | 4 (Herbicidal ratio of 70% or higher and lower than 90%) | 2 (Herbicidal ratio of 20% or higher and lower than 40%) | 3 (Herbicidal ratio of 40% or higher and lower than 70%) | 2 (Herbicidal ratio of 20% or higher and lower than 40%) | 5 (Herbicidal ratio of 90% or more (almost completely withered)) |  |  |  | 
3 | CC(CC1CC(OC(=O)COc2ccccc2)=C(c2c(C)cc(-n3cc(Cl)cn3)cc2C)C1=O)=NOCC(F)(F)F (stereo not shown) [9-012] | 5 (Herbicidal ratio of 90% or more (almost completely withered)) | 2 (Herbicidal ratio of 20% or higher and lower than 40%) | 5 (Herbicidal ratio of 90% or more (almost completely withered)) |  |  |  |  |  |  |  | 5 (Herbicidal ratio of 90% or more (almost completely withered)) | 5 (Herbicidal ratio of 90% or more (almost completely withered)) | 1 (Herbicidal ratio of 5% or higher and lower than 20%) | 2 (Herbicidal ratio of 20% or higher and lower than 40%) | 4 (Herbicidal ratio of 70% or higher and lower than 90%) | 3 (Herbicidal ratio of 40% or higher and lower than 70%) | 5 (Herbicidal ratio of 90% or more (almost completely withered)) | 5 (Herbicidal ratio of 90% or more (almost completely withered)) | 5 (Herbicidal ratio of 90% or more (almost completely withered)) | 5 (Herbicidal ratio of 90% or more (almost completely withered)) | Herbicidal effect grade, L: Apera spica-venti (Apera spica-venti [7]): 5 (Herbicidal ratio of 90% or more (almost completely withered)); Herbicidal effect grade, M: Abutilon theophrasti (Abutilon theophrasti [3]): 0 (Herbicidal ratio of 5% or lower (almost no effect)); Herbicidal effect grade, O: Chenopodium album (Chenopodium album [8]): 0 (Herbicidal ratio of 5% or lower (almost no effect)); Effect on crop grade, d: soybean (soybean): 0 (Herbicidal ratio of 5% or lower (almost no effect)); Effect on crop grade, f: beet (beet): 0 (Herbicidal ratio of 5% or lower (almost no effect))
4 | COCCON=C(CC1CC(O)=C(c2c(C)cc(-n3cc(Cl)cn3)cc2C)C1=O)C(C)C (stereo not shown) [9-022] | 4 (Herbicidal ratio of 70% or higher and lower than 90%) | 0 (Herbicidal ratio of 5% or lower (almost no effect)) | 5 (Herbicidal ratio of 90% or more (almost completely withered)) |  |  |  |  |  |  |  | 0 (Herbicidal ratio of 5% or lower (almost no effect)) | 2 (Herbicidal ratio of 20% or higher and lower than 40%) | 0 (Herbicidal ratio of 5% or lower (almost no effect)) | 0 (Herbicidal ratio of 5% or lower (almost no effect)) | 0 (Herbicidal ratio of 5% or lower (almost no effect)) | 0 (Herbicidal ratio of 5% or lower (almost no effect)) | 5 (Herbicidal ratio of 90% or more (almost completely withered)) | 5 (Herbicidal ratio of 90% or more (almost completely withered)) | 5 (Herbicidal ratio of 90% or more (almost completely withered)) | 0 (Herbicidal ratio of 5% or lower (almost no effect)) | Herbicidal effect grade, L: Apera spica-venti (Apera spica-venti [7]): 0 (Herbicidal ratio of 5% or lower (almost no effect)); Herbicidal effect grade, M: Abutilon theophrasti (Abutilon theophrasti [3]): 0 (Herbicidal ratio of 5% or lower (almost no effect)); Herbicidal effect grade, O: Chenopodium album (Chenopodium album [8]): 0 (Herbicidal ratio of 5% or lower (almost no effect)); Effect on crop grade, d: soybean (soybean): 0 (Herbicidal ratio of 5% or lower (almost no effect)); Effect on crop grade, f: beet (beet): 0 (Herbicidal ratio of 5% or lower (almost no effect))
